Measurements taken from US20260226048A1, “MULTI-CYCLIC IRAK AND FLT3 INHIBITING COMPOUNDS AND USES THEREOF” (CHILDREN'S HOSPITAL MEDICAL CENTER, priority 2023, published 2026).
Read-outs that look alike come from different tables or passages of the source.

Key:
[1] = molecular target: T1, FLT3 (Homo sapiens, UniProt P36888); experiment: RBC HotSpot Kinase Assay, FLT3; assay type: biochemical; parameters: purchased Reaction Biology (RBC HotSpot); details: isolated kinase enzyme, 33P-ATP, P81 filter-binding
T1 sequence (P36888 27-993): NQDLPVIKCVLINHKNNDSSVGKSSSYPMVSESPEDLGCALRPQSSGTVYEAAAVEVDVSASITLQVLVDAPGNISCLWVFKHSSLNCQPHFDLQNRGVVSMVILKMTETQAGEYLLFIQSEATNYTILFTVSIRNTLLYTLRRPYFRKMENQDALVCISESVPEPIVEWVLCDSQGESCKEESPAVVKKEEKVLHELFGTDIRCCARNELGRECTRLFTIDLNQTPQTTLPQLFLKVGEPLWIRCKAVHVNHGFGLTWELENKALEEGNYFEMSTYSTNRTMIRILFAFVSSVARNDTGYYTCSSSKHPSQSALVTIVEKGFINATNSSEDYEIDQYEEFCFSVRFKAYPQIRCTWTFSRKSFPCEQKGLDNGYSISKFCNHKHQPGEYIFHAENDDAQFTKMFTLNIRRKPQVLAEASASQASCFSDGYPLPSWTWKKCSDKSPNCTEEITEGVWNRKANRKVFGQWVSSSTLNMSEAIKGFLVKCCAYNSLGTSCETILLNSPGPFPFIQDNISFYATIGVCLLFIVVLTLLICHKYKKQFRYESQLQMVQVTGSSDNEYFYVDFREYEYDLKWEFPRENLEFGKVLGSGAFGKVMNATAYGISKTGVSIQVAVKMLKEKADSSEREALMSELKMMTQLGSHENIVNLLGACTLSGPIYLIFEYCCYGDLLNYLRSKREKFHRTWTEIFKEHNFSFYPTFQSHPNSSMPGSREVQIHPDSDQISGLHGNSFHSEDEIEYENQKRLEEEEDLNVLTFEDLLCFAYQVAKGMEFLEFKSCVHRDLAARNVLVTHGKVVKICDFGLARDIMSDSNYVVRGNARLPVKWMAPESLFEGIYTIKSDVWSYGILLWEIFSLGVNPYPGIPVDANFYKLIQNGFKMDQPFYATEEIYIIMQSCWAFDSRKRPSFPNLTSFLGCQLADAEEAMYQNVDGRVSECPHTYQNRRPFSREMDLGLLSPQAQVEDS
Source text: (§1) This assay uses the isolated kinase enzyme. […] Unlike kinase binding assays that measure competition for ATP, the HotSpot Kinase Assay is a functional assay that measures catalytic activity; as such it measures relative functional potency regardless of the mechanism of enzyme inhibition. This assay uses the form of the various enzymes that are easiest to express, which may not necessarily be the form of the enzyme that exist in the cell. (Sometimes the carboxy terminus has been truncated to aid in expression, or, if it is a receptor kinase, the enzyme itself is isolated from the other parts of the receptor that are involved in regulating kinase activity.)
(§2) The reagent used was as follows: Base Reaction buffer; 20 mM Hepes (pH 7.5), 10 mM MgCl2, 1 mM EGTA, 0.01% Brij35, 0.02 mg/ml BSA, 0.1 mM Na3VO4, 2 mM DTT, 1% DMSO. Required cofactors were added individually to each kinase reaction.

[2] = molecular target: T2, IRAK4 (Homo sapiens, UniProt Q9NWZ3); experiment: RBC HotSpot Kinase Assay, IRAK4; assay type: biochemical; parameters: purchased Reaction Biology (RBC HotSpot); details: isolated kinase enzyme, 33P-ATP, P81 filter-binding
T2 sequence (Q9NWZ3 1-460): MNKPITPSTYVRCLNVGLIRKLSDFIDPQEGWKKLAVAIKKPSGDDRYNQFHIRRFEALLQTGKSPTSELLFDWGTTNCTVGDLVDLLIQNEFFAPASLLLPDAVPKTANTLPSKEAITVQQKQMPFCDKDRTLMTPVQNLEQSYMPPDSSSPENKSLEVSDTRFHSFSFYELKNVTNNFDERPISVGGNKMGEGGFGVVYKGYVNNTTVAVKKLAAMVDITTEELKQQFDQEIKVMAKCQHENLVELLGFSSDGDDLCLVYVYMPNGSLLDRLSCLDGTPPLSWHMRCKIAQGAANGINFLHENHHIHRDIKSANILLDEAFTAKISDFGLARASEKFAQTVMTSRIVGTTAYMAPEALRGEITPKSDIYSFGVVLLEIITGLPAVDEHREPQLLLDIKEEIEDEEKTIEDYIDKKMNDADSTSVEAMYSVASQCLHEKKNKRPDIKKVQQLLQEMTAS
Source text: as §1, with “enzyme. This assay is very useful for determining competition of the inhibitor for ATP and/or substrates and for measuring the kinetics of enzyme inhibition.” for “enzyme.”
as §2
The reaction procedure was as follows: • 1) Substrates were prepared in freshly prepared Reaction Buffer. • 2) Any required cofactors were delivered to the substrate solution above. • 3) Kinase was delivered into the substrate solution and gently mixed. • 4) Compounds were delivered in 1000A DM into the kinase reaction mixture by Acoustic technology (Echo550; nanoliter range), followed by incubation for 20 min at room temp. • 5) 33P-ATP was delivered into the reaction mixture to initiate the reaction. • 6) The mixture was incubated for 2 hours at room temperature. • 7) Kinase activity was detected by P81 filter-binding method.

[3] = system: MOLM14 D835Y cells; experiment: MOLM14 D835Y cell viability assay (Cell Titer Glo); assay type: cell-based; details: cell viability, Cell Titer Glo, 48 hours, read-out: MOLM14 D835Y IC50
Description: Both cell lines have activated FLT3 receptors, each of which carry additional resistance mutations in the kinase domain (D835Y and F691L, respectively).
For viability/cytotoxicity assessments, cells were seeded into 1536-well white polystyrene tissue culture-treated Greiner plates using a Multidrop Combi dispenser (ThermoFisher), in final volume 5 μL of growth media per well, at a density of 1000 cells per well. […] Plates were incubated for 48 hours at standard incubator conditions covered by a stainless steel gasketed lid to prevent evaporation. 48 hours post compound addition, 3 μL of Cell Titer Glo (Promega) were added to each well and plates were incubated at room temperature for 15 minutes with the stainless-steel lid in place. Luminescence readings were taken using a Viewlux imager (PerkinElmer) with a 2 second exposure time per plate.

[4] = molecular target: T3, IRAK1 (Homo sapiens, UniProt P51617); experiment: RBC HotSpot Kinase Assay, IRAK1; assay type: biochemical; details: isolated kinase enzyme, 33P-ATP, P81 filter-binding
T3 construct: purchased Reaction Biology (RBC HotSpot)
T3 sequence (P51617 whole entry): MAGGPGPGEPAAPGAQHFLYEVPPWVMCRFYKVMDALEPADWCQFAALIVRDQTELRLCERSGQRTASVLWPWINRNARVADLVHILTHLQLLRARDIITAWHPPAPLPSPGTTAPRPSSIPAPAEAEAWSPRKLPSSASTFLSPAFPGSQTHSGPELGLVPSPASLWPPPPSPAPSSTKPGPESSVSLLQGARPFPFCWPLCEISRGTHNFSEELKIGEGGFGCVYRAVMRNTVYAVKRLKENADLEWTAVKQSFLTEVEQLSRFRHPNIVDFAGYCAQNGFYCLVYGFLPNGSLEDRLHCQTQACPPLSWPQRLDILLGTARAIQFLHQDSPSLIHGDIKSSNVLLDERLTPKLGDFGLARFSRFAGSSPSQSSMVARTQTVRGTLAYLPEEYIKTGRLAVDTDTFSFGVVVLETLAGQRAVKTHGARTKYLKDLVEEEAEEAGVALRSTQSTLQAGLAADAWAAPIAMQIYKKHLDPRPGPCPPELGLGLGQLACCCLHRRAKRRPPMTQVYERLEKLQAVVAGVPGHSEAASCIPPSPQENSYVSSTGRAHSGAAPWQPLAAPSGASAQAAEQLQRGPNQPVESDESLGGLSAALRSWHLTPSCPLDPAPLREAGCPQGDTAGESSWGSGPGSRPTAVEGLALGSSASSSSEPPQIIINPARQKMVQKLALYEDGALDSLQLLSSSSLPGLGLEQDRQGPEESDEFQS
Source text: as §1, §2

SMILES	IC50 [1] [nM]	IC50 [2] [nM]	IC50 ([3]; Homo sapiens, MOLM-14, 48 h) [nM]	IC50 [4] [nM]	IC50 [3] [nM]
CC(O)(c1ccc2ncc(-c3ccnc(N[C@H]4CNC[C@@H]4F)n3)n2c1)C(F)(F)F (single isomer, unassigned) [Compound 24a]	< 0.5	0.9	41	16	–
CC(O)(c1ccc2ncc(-c3ccnc(N[C@H]4CNC[C@@H]4F)n3)n2c1)C(F)(F)F (single isomer, unassigned) [Compound 26a]	< 0.5	< 0.5	–	5	23
CC(O)(c1ccc2ncc(-c3cncc(N[C@@H]4CCCNC4)n3)n2c1)C(F)(F)F (single isomer, unassigned) [Compound 29a]	1	0.8	–	27	106
CC(O)(c1ccc2ncc(-c3cncc(N[C@H]4CNC[C@@H]4F)n3)n2c1)C(F)(F)F (single isomer, unassigned) [Compound 30a]	2	5	576	108	–
CC(O)(c1ccc2ncc(-c3cncc(N[C@H]4CNC[C@@H]4F)n3)n2c1)C(F)(F)F (single isomer, unassigned) [Compound 32a]	2	1	–	53	408
CC(O)(c1ccc2ncc(-c3cncc(N[C@H]4CNCC[C@@H]4F)n3)n2c1)C(F)(F)F (single isomer, unassigned) [Compound 33a]	0.7	0.8	–	9	65
CC(O)(c1ccc2ncc(-c3nc(N[C@H]4CNC[C@@H]4F)ncc3F)n2c1)C(F)(F)F (single isomer, unassigned) [Compound 36a]	< 0.5	2	41	4	–
CC(O)(c1ccc2ncc(-c3nc(N[C@H]4CNC[C@@H]4F)ncc3F)n2c1)C(F)(F)F (single isomer, unassigned) [Compound 38a]	< 0.5	0.6	–	1	51
CC(O)(c1ccc2ncc(-c3nc(N[C@@H]4CCCNC4)ncc3F)n2c1)C(F)(F)F (single isomer, unassigned) [Compound 39a]	< 0.5	1	–	2	32
CC(O)(c1cn2c(-c3nc(N[C@@H]4CCCNC4)ncc3F)cnc2cn1)C(F)(F)F (single isomer, unassigned) [Compound 131a]	2	28	–	15	–
CC(O)(c1cn2c(-c3nc(N[C@@H]4CCCNC4)ncc3F)cnc2cn1)C(F)(F)F (single isomer, unassigned) [Compound 132a]	< 0.5	2	–	3	–
CC(O)(c1cn2c(-c3nc(N[C@H]4CNCC[C@@H]4F)ncc3F)cnc2cn1)C(F)(F)F (single isomer, unassigned) [Compound 133a]	1	15	–	15	–
CC(O)(c1cn2c(-c3nc(N[C@H]4CNCC[C@@H]4F)ncc3F)cnc2cn1)C(F)(F)F (single isomer, unassigned) [Compound 134a]	< 0.5	1	–	2	–
COc1cc2ncc(-c3nc(N[C@H]4CNC[C@@H]4F)ncc3F)n2nc1C1CC1 [Compound 2a, 4-(6-cyclopropyl-7-methoxyimidazo[1,2-b]pyridazin-3-yl)-5-fluoro-N-((3S,4S)-4-fluoropyrrolidin-3-yl)pyrimidin-2-amine]	< 0.5	0.7	4	1	–
FC(F)COc1cc2ncc(-c3ccnc(N[C@H]4CNC[C@@H]4F)n3)n2nc1C1CC1 [Compound 5a, 4-(6-cyclopropyl-7-(2,2-difluoroethoxy)imidazo[1,2-b]pyridazin-3-yl)-N-((3S,4S)-4-fluoropyrrolidin-3-yl)pyrimidin-2-amine]	< 0.5	0.9	29	29	–
FC(F)COc1cc2ncc(-c3ccnc(N[C@@H]4CCCNC4)n3)n2nc1C1CC1 [Compound 6a, (R)-4-(6-cyclopropyl-7-(2,2-difluoroethoxy)imidazo[1,2-b]pyridazin-3-yl)-N-(piperidin-3-yl)pyrimidin-2-amine]	< 0.5	3	9	133	–
COc1cc2ncc(-c3nc(N[C@H]4CNCC[C@@H]4F)ncc3F)n2nc1C1(C)COC1 [Compound 70a, 5-fluoro-N-((3S,4S)-4-fluoropiperidin-3-yl)-4-(7-methoxy-6-(3-methyloxetan-3-yl)imidazo[1,2-b]pyridazin-3-yl)pyrimidin-2-amine]	< 0.5	< 0.5	–	3	–
[2H]C([2H])([2H])Oc1cc2ncc(-c3ccnc(N[C@H]4CNCC[C@@H]4F)n3)n2nc1C1CC1 [Compound 128a, 4-(6-cyclopropyl-7-(methoxy-d3)imidazo[1,2-b]pyridazin-3-yl)-N-((3S,4S)-4-fluoropiperidin-3-yl)pyrimidin-2-amine]	< 0.5	0.7	–	24	–
[2H]C([2H])([2H])Oc1cc2ncc(-c3ccnc(N[C@@H]4CCCNC4)n3)n2nc1C1CC1 [Compound 129a, (R)-4-(6-cyclopropyl-7-(methoxy-d3)imidazo[1,2-b]pyridazin-3-yl)-N-(piperidin-3-yl)pyrimidin-2-amine]	< 0.5	2	–	86	–
